The term Ki denotes the dissociation constant of the complex between target and ligand, obtained from inhibition or displacement. Higher therefore signals lower affinity.

Molecules are shown by their SMILES.

The test system of series [1] is spontaneously hypertensive rat (SHR). Description: Hemodynamic measurements in anesthetized spontaneously hypertensive rats. It is filed as in vivo. The method, then:
Anandamide, the CB1 receptor antagonist AM251, and the anandamide transport inhibitors AM404 and OMDM-2 were obtained from Tocris; and the CB1 antagonist SR141716 and the CB2 antagonist SR144528 were from the National Institute on Drug Abuse drug supply program. Drugs were mixed in corn oil and sonicated for 5 minutes at 4° C. The mixture was added to 4 parts of Pluronic F68 (Sigma-Aldrich) solution (40 mg/mL) dissolved in water and sonicated to obtain a stable suspension for bolus intravenous injections.
Rats were obtained from Harlan (Indianapolis, Ind.). Male, 8- to 10-month-old SHR, age-matched male Wistar-Kyoto rats (WKY), and 8- to 10-week-old male Sprague-Dawley rats were maintained on standard rat chow and water ad libitum. Dahl salt-sensitive and salt-resistant rats (male, Rapp strain, 6 weeks old) were maintained for 4 weeks on rat chow containing either 0.12% or 8% NaCl. […] Hypertension was induced in Sprague-Dawley rats by chronic infusion of angiotensin II (60 ng/min) via an osmotic minipump (Imig et al. Hypertension 2002; 39: 690-694. Rats were used 10 to 12 days after implantation of the minipump.
For hemodynamic measurements, rats were anesthetized with pentobarbital sodium (60 mg/kg IP) and tracheotomized to facilitate breathing. Animals were placed on controlled heating pads, and core temperature, measured via a rectal probe, was maintained at 37° C. A microtip pressure-volume catheter (SPR-838; Millar Instruments) was inserted into the right carotid artery and advanced into the left ventricle (LV) under pressure control as described previously. Polyethylene cannulae (P50) were inserted into the right femoral artery and vein for measurement of mean arterial pressure (MAP) and administration of drugs, respectively. […] Heart rate, maximal LV systolic pressure, MAP, and maximal slope of systolic pressure increment (+dP/dt) were computed with a cardiac pressure-volume analysis program (PVAN2.9; Millar). Cardiac output calculated and corrected according to in vitro and in vivo volume calibrations with PVAN2.918 was normalized to body weight (cardiac index [CI]). Total peripheral resistance index (TPRI) was calculated by the equation TPRI=MAP/CI. In 3 experiments, drugs were microinjected into the fourth cerebral ventricle as described by Ramirez-Gonzalez et al. Circ Res. 1983; 53, 150-157.
Time-dependent variables were analyzed by ANOVA followed by the Dunnett post hoc test. In other cases, the Student t test was used, as appropriate. Values with P<0.05 were considered statistically significant.

The target in a further series is T1, FAAH (Rattus norvegicus, UniProt P97612).
T1 construct: from tissue; host or cells: liver of SHR and WKY rats treated in vivo
T1 sequence (P97612 1-579): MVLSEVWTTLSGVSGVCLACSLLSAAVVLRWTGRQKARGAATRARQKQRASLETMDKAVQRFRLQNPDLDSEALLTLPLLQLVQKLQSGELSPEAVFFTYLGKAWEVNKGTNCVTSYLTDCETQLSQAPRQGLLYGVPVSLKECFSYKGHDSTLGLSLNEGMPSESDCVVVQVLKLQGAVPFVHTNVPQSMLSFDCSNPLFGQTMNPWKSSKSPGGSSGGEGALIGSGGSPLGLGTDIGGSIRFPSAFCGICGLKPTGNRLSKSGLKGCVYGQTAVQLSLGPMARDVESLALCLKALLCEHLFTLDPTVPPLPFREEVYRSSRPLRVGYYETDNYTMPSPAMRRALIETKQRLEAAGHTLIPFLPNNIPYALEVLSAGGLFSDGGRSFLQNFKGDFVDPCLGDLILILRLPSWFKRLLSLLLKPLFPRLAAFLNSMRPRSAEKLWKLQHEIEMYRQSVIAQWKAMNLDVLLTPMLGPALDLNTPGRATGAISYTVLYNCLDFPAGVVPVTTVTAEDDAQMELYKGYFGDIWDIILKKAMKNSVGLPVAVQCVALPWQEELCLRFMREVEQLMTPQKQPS
Description: Hepatic FAAH activity in SHR and WKY after i.p. treatment. The format is in vivo. As to conditions: AM3506 1 mg/kg, n=3-5.

The test system of another series is conscious SHR. Description: Blood pressure and heart rate in conscious SHR. As to conditions: versus dosage. It is filed as in vivo, rat.
The next series deals with CB1 cannabinoid receptor (Homo sapiens, UniProt P21554). Description: Affinity for the CB1 cannabinoid receptor. It is filed as binding.
The next series relates to anandamide transporter. Description: Inhibition of the anandamide transporter (anandamide uptake). The format is cell-based. As to conditions: concentrations of up to 20 μM.
A short description of series [2]: Non-fasting blood glucose in SHR and WKY. As to conditions: AM3506 1 mg/kg i.p., n=6.
Series [3] deals with male DIO mice (wild-type C57Bl6/J on high-fat diet). Description: Intraperitoneal glucose tolerance test in wild-type mice with diet-induced obesity. The format is in vivo. As to conditions: AM3506 1 mg/kg i.p., 60 min before glucose 1.5 g/kg i.p., 1 mg/kg. On the procedure: Male C57Bl6/J mice, wild-type or liver-specific CB1 receptor knockout, were kept on a diet containing 60% of calories as fat (Research Diets Inc) for 14 weeks, by which time both strains have become fat due to increased adipose mass. […] Sixty minutes later the mice received 1.5 g/kg glucose i.p. and blood glucose levels were monitored for 2 hours.

[4] abbreviates: AM3506 bolus 1 mg/kg, anesthetized SHR, FIG. 7.

CB1 cannabinoid receptor, sequence (P21554 whole entry): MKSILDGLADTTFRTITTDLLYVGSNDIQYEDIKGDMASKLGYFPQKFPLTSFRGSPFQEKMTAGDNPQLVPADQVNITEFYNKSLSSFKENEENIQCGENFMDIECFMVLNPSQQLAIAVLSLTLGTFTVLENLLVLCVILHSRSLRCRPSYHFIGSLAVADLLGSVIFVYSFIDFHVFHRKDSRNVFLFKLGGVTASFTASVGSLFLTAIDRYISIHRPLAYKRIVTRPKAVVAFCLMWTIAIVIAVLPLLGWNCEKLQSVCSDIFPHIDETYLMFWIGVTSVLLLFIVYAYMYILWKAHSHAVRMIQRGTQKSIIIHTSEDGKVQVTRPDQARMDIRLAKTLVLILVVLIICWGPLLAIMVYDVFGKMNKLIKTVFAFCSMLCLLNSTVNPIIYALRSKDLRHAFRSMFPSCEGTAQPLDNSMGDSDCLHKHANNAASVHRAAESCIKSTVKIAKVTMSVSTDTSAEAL

For `O=S(=O)(F)CCCCCc1ccc(O)cc1` [AM3506], the “lowering of blood pressure” value in series [1] (AM3506 0.3 mg/kg i.v., SHR) was 90 mmHg. For the same molecule, the “dose equivalence in producing hypotension” value in series [1] (AM3506 1 mg/kg versus URB597 10 mg/kg) is recorded as “equieffective with 10 mg/kg URB597”. Also, in series [1] (setting [4]), the cardiac contractility result was “significantly decreases”, the cardiac output entry is on record as “reduced”, the “left ventricular end systolic pressure (LVESP)” value is “decreases” and the “maximal slope of the systolic pressure increment (dP/dt)” value is reported as “decrease”. Also, the stroke volume result in series [1] (setting [4]) is recorded as “reduced”. Further, in series [1] (AM3506 intravenously 1 mg/kg in 50 μl, anesthetized SHR, FIG. 1), the blood pressure effect result is “hypotensive effect”. In addition, the “reduction of hepatic FAAH activity” value at FAAH (SHR) was found to be 11.1±0.04%. The “reduction of hepatic FAAH activity” value at FAAH (WKY) came out at 6.7±0.2%. The MBP result with conscious SHR (n=4, FIG. 4A) is “decrease MBP”. The heart rate entry in the series on conscious SHR (n=4, FIG. 5A) is “moderate bradycardia only at 1 mg/kg dose”. At CB1 cannabinoid receptor, this molecule displayed a Ki of 192 nM. For the same molecule, in the series with anandamide transporter, the “inhibition of the anandamide transporter” value is reported as “did not inhibit”. For the same molecule, the “non-fasting blood glucose after treatment” value in series [2] (SHR, from 97.8±5.6) came out at 97.8 ± 2.9 mg/dL. For the same molecule, the “non-fasting blood glucose after treatment” value in series [2] (WKY, from 114.5±5.3) was 108.2 ± 4.5 mg/dL. Also, the glucose intolerance entry in series [3] is on record as “had no such effect”.

The values are drawn from patent publication US8293724B2, “Therapeutic applications of fatty acid amide hydrolase inhibitors” (The United States of America, as represented by the …, priority 2007, dated 2012).
